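Assay format: 96-well plates, 48-hour exposure. The concentration for full growth arrest is given as TGI.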
Columns and labels:
Experiment in all cases: inhibition of tumour cell growth, NCI panel, 48 h
A549 NSCLC = tested on: A549 NSCLC
CAKI-1 renal = tested on: CAKI-1 renal
DU-145 prostate = tested on: DU-145 prostate
EKVX NSCLC = tested on: EKVX NSCLC
HOP-62 NSCLC = tested on: HOP-62 NSCLC
IGROV1 ovarian = tested on: IGROV1 ovarian
K-562 leukemia = tested on: K-562 leukemia
KM12 colon = tested on: KM12 colon
NCI-H460 lung = tested on: NCI-H460 lung
OVCAR-3 ovarian = tested on: OVCAR-3 ovarian
OVCAR-8 ovarian = tested on: OVCAR-8 ovarian
RXF 393 renal = tested on: RXF 393 renal
SK-MEL-2 melanoma = tested on: SK-MEL-2 melanoma
SK-MEL-28 melanoma = tested on: SK-MEL-28 melanoma
SN12C renal = tested on: SN12C renal
SNB-75 CNS = tested on: SNB-75 CNS
SW-620 colon = tested on: SW-620 colon
UACC-62 melanoma = tested on: UACC-62 melanoma
UO-31 renal = tested on: UO-31 renal
LXFL 529 NSCLC = tested on: LXFL 529 NSCLC

Compound | TGI (A549 NSCLC) [µM] | TGI (CAKI-1 renal) [µM] | TGI (DU-145 prostate) [µM] | TGI (EKVX NSCLC) [µM] | TGI (HOP-62 NSCLC) [µM] | TGI (IGROV1 ovarian) [µM] | TGI (K-562 leukemia) [µM] | TGI (KM12 colon) [µM] | TGI (NCI-H460 lung) [µM] | TGI (OVCAR-3 ovarian) [µM] | TGI (OVCAR-8 ovarian) [µM] | TGI (RXF 393 renal) [µM] | TGI (SK-MEL-2 melanoma) [µM] | TGI (SK-MEL-28 melanoma) [µM] | TGI (SN12C renal) [µM] | TGI (SNB-75 CNS) [µM] | TGI (SW-620 colon) [µM] | TGI (UACC-62 melanoma) [µM] | TGI (UO-31 renal) [µM] | TGI (LXFL 529 NSCLC) [µM]
CC(=O)O[C@H]1CC[C@H]2[C@@H]3CCC4C(C)=NNC(=O)C4[C@H]3CC[C@]12C (some centres undefined) | > 100 | > 100 | > 100 | > 100 | 57.6 | > 79.4 | > 100 | > 100 | > 100 | > 100 | > 100 | > 100 | > 100 | > 100 | > 100 | 33.7 | > 100 | > 100 | > 100 | –
C=C(Cl)c1c(OC)cccc1OCc1ccccc1 | > 100 | > 100 | > 100 | > 100 | > 100 | > 100 | > 100 | > 100 | > 100 | > 100 | > 100 | 51.9 | > 100 | > 100 | > 100 | > 100 | > 100 | > 100 | > 100 | –
CC(=O)C(=[N+]=[N-])C(=O)NCC#N | > 10 | > 10 | > 10 | > 10 | > 10 | > 10 | > 10 | > 10 | > 10 | > 10 | > 10 | > 10 | > 10 | > 10 | > 10 | > 10 | > 10 | > 10 | > 10 | –
O=C(c1ccccc1)c1ccc2nc3n(c2c1)C(c1c(F)cccc1F)SC3 (centres undefined) | > 84.8 | 44.4 | > 74 | > 48.4 | 52.2 | > 100 | > 100 | 14.3 | 52.2 | 24.1 | 98.4 | 72.8 | 31.2 | > 70.5 | 34.8 | 29.4 | > 100 | 21.3 | 56.5 | –
COc1ccc2c(c1)/C(=C\c1c(C)nc3n1CCS3)C(=O)N2 | > 100 | > 100 | > 100 | > 100 | > 100 | > 100 | > 100 | > 100 | > 100 | 76 | > 100 | > 100 | > 100 | > 100 | 73.8 | > 100 | > 100 | > 100 | > 100 | –
O=C1NC(=O)C(Cc2ccccc2)(c2cccnc2)N1 (centres undefined) | > 100 | > 100 | > 100 | > 100 | > 100 | > 100 | > 100 | > 100 | > 100 | > 100 | > 100 | > 100 | > 100 | > 100 | > 100 | > 100 | > 100 | > 100 | > 100 | –
COc1cc2c[n+](C)c3c4cc5c(cc4ccc3c2cc1OC)OCO5 | 0.756 | – | 9.19 | 18.7 | 16.4 | 3.9 | 32.2 | 7.21 | 14.7 | 9.39 | 29.9 | 49.7 | 6.97 | > 82.4 | > 27.8 | 0.767 | 26 | 4.92 | > 100 | 4.67
CCC(C)C(C(=O)N/N=C1/SCC(=O)N1c1ccccc1)C(=O)N/N=C1/SCC(=O)N1c1ccccc1 (centres undefined) | > 100 | > 100 | > 100 | > 100 | > 100 | > 100 | > 100 | 93.9 | > 100 | > 100 | > 100 | 42.9 | 83.1 | 33.9 | > 100 | > 100 | > 100 | 36.9 | > 100 | –
COc1cc(OCc2nc3ccccc3n3cccc23)cc(OC)c1OC | > 100 | > 100 | > 100 | > 62.7 | > 100 | > 100 | 23.8 | > 50.6 | > 100 | > 60.9 | > 100 | > 100 | > 100 | > 90.5 | > 88.9 | > 100 | > 54.5 | > 72.3 | > 89.6 | –
COc1ccc2cc(CNCCCCCCCCCCCCNCc3ccc4cc(OC)ccc4c3)ccc2c1 | > 54.8 | 47.3 | > 56.1 | 37.6 | 39.2 | 29.9 | > 50 | 40.1 | 35.8 | 37.1 | 32.4 | 28.7 | 41.1 | > 56 | 46.9 | 28.7 | > 51.9 | 38.4 | 35.8 | –
CNc1c2cccc(C)c2nc2c(C(=O)NCCN(C)C)cccc12 | 0.331 | 0.23 | 0.684 | 1.33 | 0.578 | 10.6 | > 100 | 1.67 | 0.206 | 1.05 | 0.297 | 0.413 | 0.996 | 1.17 | 0.719 | 0.592 | 0.424 | 0.402 | 2.49 | –

From PubChem BioAssay (NCI)
